According to ChEMBL document CHEMBL6153133, “Discovery of Diphenyl Ether Derivatives as Novel BKCa Channel Activators: Structure-Activity Relationship, Cryo-EM Complex Structures, and In Vivo Animal Studies” (J Med Chem, 2025):
Activity calls are given as the source filed them. The rule behind the calls is not given here.

Tests used:
[1] = Metabolic stability in human liver microsomes assessed as parent compound remaining at 1 uM preincubated for 5 mins followed by NADPH addition and measured after 30 mins by LC-MS/MS analysis; type: ADME, Microsome; conditions: read-out: Stability
[2] = test system: Calcium-activated potassium channel subunit alpha-1 (Homo sapiens), Q12791 [UNDEFINED MUTATION]; assay: (§1) Activation of hyperactive human BKca channel G803D/N806K mutant transfected in human AD-293 cells assessed as fold change in maximum relative fluorescence value at 5 uM preincubated for 15 mins followed by Tl+ stimulus buffer addition and measured after 80 sec by Flexstation3 multimode microplate reader analysis relative to 4-chloro-7-(trifluoromethyl)-10H-benzofuro[3,2-b]indole-1-carboxylic acid; type: cell-based; conditions: filed as opener, time 980.0 sec
[3] = test system: Calcium-activated potassium channel subunit alpha-1 (Homo sapiens), Q12791 [UNDEFINED MUTATION]; assay: as §1, with “as” for “as fold change in”, “at 1” for “at 5”, “to control” for “to 4-chloro-7-(trifluoromethyl)-10H-benzofuro[3,2-b]indole-1-carboxylic acid”; type: cell-based; conditions: time 980.0 sec
[4] = Metabolic stability in rat liver microsomes assessed as parent compound remaining at 1 uM preincubated for 5 mins followed by NADPH addition and measured after 30 mins by LC-MS/MS analysis; type: ADME, Microsome; conditions: read-out: Stability
[5] = test system: Calcium-activated potassium channel subunit alpha-1 (Homo sapiens), Q12791 [UNDEFINED MUTATION]; assay: as §1, with “as” for “as fold change in”, “control” for “4-chloro-7-(trifluoromethyl)-10H-benzofuro[3,2-b]indole-1-carboxylic acid”; type: cell-based; conditions: time 980.0 sec
[6] = target: Calcium-activated potassium channel subunit alpha-1 (Homo sapiens, UniProt Q12791, G803D/N806K); assay: (§2) Activation of hyperactive human BKca channel G803D/N806K mutant transfected in human AD-293 cells incubated for 15 mins by Flexstation3 multimode microplate reader analysis; type: cell-based
[7] = test system: Oocyte; assay: Activation of rat BKca channel extracted from Xenopus laevis Oocytes assessed as left shift in G-V curve at 5 uM by patch-clamp electrophysiology recordings; type: cell-based; conditions: filed as opener
[8] = test system: Calcium-activated potassium channel subunit alpha-1 (Homo sapiens), Q12791 [UNDEFINED MUTATION]; assay: as §1, with “analysis” for “analysis relative to 4-chloro-7-(trifluoromethyl)-10H-benzofuro[3,2-b]indole-1-carboxylic acid”; type: cell-based; conditions: filed as opener, time 980.0 sec
[9] = Metabolic stability in rat liver microsomes assessed as parent compound remaining at 1 uM preincubated for 15 mins followed by UDPGA addition and measured after 60 mins by LC-MS/MS analysis; type: ADME, Microsome; conditions: time 75 min, read-out: Stability
[10] = Metabolic stability in human liver microsomes assessed as parent compound remaining at 1 uM preincubated for 15 mins followed by UDPGA addition and measured after 60 mins by LC-MS/MS analysis; type: ADME, Microsome; conditions: time 75 min, read-out: Stability
[11] = Permeability of compound at pH 7.4 measured after 4 hrs by GIT-PAMPA assay; type: ADME; conditions: read-out: permeability
[12] = test system: Rattus norvegicus; assay: Reversal of urinary incontinence in male spontaneous hypertensive rat model assessed as decrease in urine frequency at 10 to 50 mg/kg, po measured after 3 hrs; type: functional, organism-based; conditions: dose 10-50 mg/kg
[13] = test system: Calcium-activated potassium channel subunit alpha-1 (Homo sapiens), Q12791 [UNDEFINED MUTATION]; assay: Activation of hyperactive human BKca channel G803D/N806K mutant transfected in human AD-293 cells at >2 uM preincubated for 15 mins followed by Tl+ stimulus buffer addition and measured after 80 sec in presence of paxilline by Flexstation3 multimode microplate reader analysis; type: cell-based; conditions: filed as opener, time 980.0 sec
[14] = Activation of rat BKca channel extracted from Xenopus laevis Oocytes by patch-clamp electrophysiology recordings; type: cell-based; conditions: Oocyte
[15] = test system: Rattus norvegicus; assay: Reversal of urinary incontinence in male spontaneous hypertensive rat model assessed as decrease in urine frequency at 20 to 40 mg/kg, po measured after 3 hrs; type: functional, organism-based; conditions: dose 20-40 mg/kg
[16] = target: T1, Calcium-activated potassium channel subunit alpha-1 (Homo sapiens, UniProt Q12791); assay: Activation of BKca channel (unknown origin) by cell-based fluorescence assay
[17] = target: T1, Calcium-activated potassium channel subunit alpha-1; assay: Activation of BKca channel (unknown origin) by cell based method
[18] = AUClast in male Sprague-Dawley rat at 10 mg/kg, po by LC-MS/MS analysis; type: ADME, organism-based; conditions: in vivo
[19] = Toxicity in male spontaneous hypertensive rat model at 100 mg/kg, po; type: organism-based; conditions: in vivo
[20] = test system: Rattus norvegicus; assay: Reversal of urinary incontinence in male spontaneous hypertensive rat model assessed as decrease in urine frequency at 100 mg/kg, po measured after 3 hrs relative to control; type: functional; set-up: scale not given: the % may be the effect or the level left
[21] = test system: Rattus norvegicus; assay: Reversal of urinary incontinence in male spontaneous hypertensive rat model assessed as decrease in urine volume at 100 mg/kg, po measured after 3 hrs relative to control; type: functional; set-up: scale not given: the % may be the effect or the level left
[22] = Half-life in male Sprague-Dawley rat at 10 mg/kg, po by LC-MS/MS analysis; type: ADME, organism-based; conditions: in vivo
[23] = Cmax in male Sprague-Dawley rat at 10 mg/kg, po by LC-MS/MS analysis; type: ADME, organism-based; conditions: in vivo
[24] = Tmax in male Sprague-Dawley rat at 10 mg/kg, po by LC-MS/MS analysis; type: ADME, organism-based; conditions: in vivo
[25] = test system: Oocyte; assay: Activation of […] rat BKca channel S259A mutant extracted from Xenopus laevis Oocytes assessed as negative shift in V1/2 at 5 uM at -100 mV holding potential by patch-clamp electrophysiology recordings; type: cell-based; conditions: filed as opener
[26] = test system: Oocyte; assay: Activation of […] rat BKca channel W22A mutant extracted from Xenopus laevis Oocytes assessed as negative shift in V1/2 at 5 uM at -100 mV holding potential by patch-clamp electrophysiology recordings; type: cell-based; conditions: filed as opener
[27] = test system: Oocyte; assay: Activation of […] rat BKca channel F266A mutant extracted from Xenopus laevis Oocytes assessed as negative shift in V1/2 at 5 uM at -100 mV holding potential by patch-clamp electrophysiology recordings; type: cell-based; conditions: filed as opener
[28] = test system: Oocyte; assay: Activation of wildtype rat BKca channel extracted from Xenopus laevis Oocytes assessed as negative shift in V1/2 at 5 uM at -100 mV holding potential by patch-clamp electrophysiology recordings; type: cell-based; conditions: filed as opener
[29] = test system: Calcium-activated potassium channel subunit alpha-1 (Homo sapiens), Q12791 [UNDEFINED MUTATION]; assay: as §2; type: cell-based

Calcium-activated potassium channel subunit alpha-1 (Homo sapiens, UniProt Q12791, G803D/N806K), sequence (Q12791 whole entry, looked up, stated change not applied): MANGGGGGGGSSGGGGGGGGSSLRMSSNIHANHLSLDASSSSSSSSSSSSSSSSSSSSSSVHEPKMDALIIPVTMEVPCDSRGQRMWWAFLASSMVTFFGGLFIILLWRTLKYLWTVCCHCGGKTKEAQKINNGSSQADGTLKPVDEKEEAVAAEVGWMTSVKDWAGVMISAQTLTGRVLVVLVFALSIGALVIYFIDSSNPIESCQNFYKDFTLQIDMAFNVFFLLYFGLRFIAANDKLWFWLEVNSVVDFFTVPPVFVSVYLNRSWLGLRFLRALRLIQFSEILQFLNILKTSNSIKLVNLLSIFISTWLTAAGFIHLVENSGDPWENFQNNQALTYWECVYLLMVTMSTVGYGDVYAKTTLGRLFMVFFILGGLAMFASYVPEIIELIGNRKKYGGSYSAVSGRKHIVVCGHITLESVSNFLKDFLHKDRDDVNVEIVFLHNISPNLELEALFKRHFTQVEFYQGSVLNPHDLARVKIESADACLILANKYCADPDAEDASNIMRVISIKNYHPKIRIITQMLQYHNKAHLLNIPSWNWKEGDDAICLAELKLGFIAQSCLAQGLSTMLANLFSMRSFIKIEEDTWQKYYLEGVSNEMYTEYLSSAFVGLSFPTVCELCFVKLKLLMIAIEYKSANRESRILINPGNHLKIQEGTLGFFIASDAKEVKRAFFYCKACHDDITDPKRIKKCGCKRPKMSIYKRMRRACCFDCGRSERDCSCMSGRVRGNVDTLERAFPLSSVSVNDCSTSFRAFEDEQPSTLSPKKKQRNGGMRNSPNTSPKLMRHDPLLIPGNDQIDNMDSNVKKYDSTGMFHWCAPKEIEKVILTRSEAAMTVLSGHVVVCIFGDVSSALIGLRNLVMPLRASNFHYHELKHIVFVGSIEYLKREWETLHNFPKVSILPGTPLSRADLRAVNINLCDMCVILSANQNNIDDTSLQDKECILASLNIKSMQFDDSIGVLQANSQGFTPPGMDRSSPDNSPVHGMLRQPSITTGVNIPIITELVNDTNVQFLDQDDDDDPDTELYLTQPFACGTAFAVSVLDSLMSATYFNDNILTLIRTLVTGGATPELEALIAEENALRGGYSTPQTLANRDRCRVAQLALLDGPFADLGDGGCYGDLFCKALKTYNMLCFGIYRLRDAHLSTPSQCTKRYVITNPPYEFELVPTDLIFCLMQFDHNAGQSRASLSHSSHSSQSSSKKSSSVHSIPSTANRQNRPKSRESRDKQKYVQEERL
Calcium-activated potassium channel subunit alpha-1 (Homo sapiens), Q12791 [UNDEFINED MUTATION], sequence (Q12791 whole entry, looked up, stated change not applied): as above
T1 sequence (Q12791 whole entry): as the sequence (Q12791 whole entry, looked up, stated change not applied) above

SMILES: Oc1ccc(Oc2c(F)c(F)c(Cl)c(F)c2F)c(O)c1
- remaining at 0.5 h, 1 µM [1]: 83.6%
- fold change (FC) [2]: 2.5
- Activity ([3]; filed as opener): 41.6%
- remaining at 0.5 h, 1 µM [4]: 35.9%
- Activity ([5]; filed as opener): 100%
- EC50 [6]: 1.58 µM
- Activity [7]: Active
- fold change (FC) [8]: 9.7

SMILES: Nc1ccc(Oc2c(F)c(F)c(C(F)(F)F)c(F)c2F)cc1
- remaining at 0.5 h, 1 µM [1]: 7.4%
- Activity [3]: 18.1%
- remaining at 0.5 h, 1 µM [4]: 18.6%
- Activity ([5]; filed as opener): 86.8%

SMILES: COc1cc(N)ccc1Oc1c(F)c(F)c(C(F)(F)F)c(F)c1F [listing 1 of 2 here]
- remaining at 0.5 h, 1 µM [1]: 87.1%
- remaining at 1 h, 1 µM [9]: 88.8%
- remaining at 0.5 h, 1 µM [4]: 7.2%
- remaining at 1 h, 1 µM [10]: 30%
- EC50 [6]: 1.21 µM
- Papp at 4 h [11]: 73.6 ×10⁻⁶ cm/s

SMILES: Oc1ccc(Oc2cccc(C(F)(F)F)c2)c(O)c1
- Activity [5]: 5.5%

SMILES: CCNc1ccc(Oc2c(F)c(F)c(C(F)(F)F)c(F)c2F)c(O)c1
- Activity ([5]; filed as opener): 65.7%

SMILES: NCCCCCNc1ccc(Oc2c(F)c(F)c(C(F)(F)F)c(F)c2F)c(O)c1
- Activity ([5]; filed as opener): 53.4%

SMILES: Nc1ccc(Oc2c(F)c(F)c(C(F)(F)F)c(F)c2F)c(O)c1
- Activity ([3]; filed as opener): 100%
- Activity ([5]; filed as opener): 100%
- Activity [12]: inactive
- Activity [13]: Active

SMILES: Oc1ccc(Oc2c(F)c(F)c(Cl)c(F)c2F)cc1
- Activity [5]: 6.1%

SMILES: Oc1ccccc1Oc1c(F)c(F)c(Cl)c(F)c1F
- Activity [5]: -2.7%

SMILES: Oc1cc(NCCCCCN2CCOCC2)ccc1Oc1c(F)c(F)c(C(F)(F)F)c(F)c1F [listing 1 of 2 here]
- remaining at 0.5 h, 1 µM [1]: 96.9%
- EC50 [14]: 0.97 µM
- remaining at 0.5 h, 1 µM [4]: 30.7%
- EC50 [6]: 2.82 µM
- Papp at 4 h [11]: 56.6 ×10⁻⁶ cm/s

SMILES: COc1cc(N)ccc1Oc1c(F)c(F)c(C(F)(F)F)c(F)c1F [listing 2 of 2 here]
- Activity [3]: 31.8%
- Activity ([5]; filed as opener): 107%
- Activity [15]: inactive

SMILES: Nc1ccc(Oc2c(F)c(F)c(C(F)(F)F)c(F)c2F)c(OC(F)(F)F)c1
- Activity [5]: 33%

SMILES: Cc1cccc(NC(=O)c2sc(=S)n3c2[nH]c(=O)c2cc(Br)ccc23)c1
- EC50 [16]: 2.7 µM
- EC50 [17]: 2.7 µM

SMILES: Oc1ccc(Oc2ccc(F)c(C(F)(F)F)c2)c(O)c1
- Activity [5]: 19.8%

SMILES: Oc1ccc(Oc2c(F)cc(C(F)(F)F)cc2F)c(O)c1
- Activity ([5]; filed as opener): 66.9%

SMILES: Cl.Cl.Oc1cc(NCCCCN2CCOCC2)ccc1Oc1c(F)c(F)c(C(F)(F)F)c(F)c1F
- AUC(0-t) [18]: 223 ng·h/mL
- Activity [19]: Non-toxic
- Activity [20]: 43.2%
- Activity [21]: 49.2%
- half-life [22]: 3.7 h
- Cmax [23]: 72.1 ng/mL
- Tmax [24]: 0.7 h

SMILES: Nc1ccc(Oc2c(F)c(F)c(C(F)(F)F)c(F)c2F)c(CO)c1
- Activity [5]: 37.9%

SMILES: Oc1cc(NCCCCN2CCOCC2)ccc1Oc1c(F)c(F)c(C(F)(F)F)c(F)c1F
- Activity [5]: 9.3%

SMILES: Fc1c(F)c(C(F)(F)F)c(F)c(F)c1Oc1ccc2[nH]ncc2c1
- Activity [5]: 1%

SMILES: Oc1cc(NCCCCCN2CCOCC2)ccc1Oc1c(F)c(F)c(C(F)(F)F)c(F)c1F [listing 2 of 2 here]
- Activity [25]: 23.5 mV
- Activity ([5]; filed as opener): 81.3%
- Activity [26]: 24 mV
- Activity [27]: 37.9 mV
- Activity [28]: 86.2 mV

SMILES: NCc1ccc(Oc2c(F)c(F)c(C(F)(F)F)c(F)c2F)c(O)c1
- Activity [29]: inactive

SMILES: Oc1c(F)c(F)c(Cl)c(F)c1F
- Activity [29]: inactive

SMILES: Fc1c(F)c(C(F)(F)F)c(F)c(F)c1Oc1ccc2[nH]ccc2c1
- Activity [5]: 1%

SMILES: NCCCCNc1ccc(Oc2c(F)c(F)c(C(F)(F)F)c(F)c2F)c(O)c1
- Activity [5]: 18%

SMILES: Nc1cc(O)ccc1Oc1c(F)c(F)c(C(F)(F)F)c(F)c1F
- Activity [5]: 4.7%

SMILES: COc1ccc(Oc2c(F)c(F)c(Cl)c(F)c2F)c(O)c1
- Activity [29]: inactive

SMILES: Oc1ccc(Oc2c(F)c(F)c(Cl)c(F)c2F)cc1O
- Activity [5]: 4%

SMILES: Oc1ccc(Oc2ccc(Cl)c(Cl)c2)c(O)c1
- Activity [5]: 18.6%

SMILES: Oc1cccc(Oc2c(F)c(F)c(Cl)c(F)c2F)c1
- Activity [5]: 5%
